“Also recorded” adds a separate entry of the source. Like-named read-outs stand apart in the source and are kept apart here.
How the values were obtained:
[1] = DPPH radical scavenging assay; settings: for EC50: isolated components, read-out: SC50 DPPH
Method: (§1) This assay was determined using the procedure previously reported.

[2] = ABTS radical scavenging assay; settings: for EC50: isolated components, read-out: SC50 ABTS
Method: as §1

[3] = Superoxide radical scavenging assay; settings: isolated components; read-out: SC50 Superoxide
Method: This assay was determined using the method previously reported.

[4] = Ferric reducing antioxidant power (FRAP) assay; settings: for FRAP (TE): isolated components, mM Trolox equivalents per gram
Method: The FRAP assay was determined using the method previously reported.

[5] = target: T1, acetylcholinesterase (AChE) (Electrophorus electricus, UniProt O42275); experiment: biochemical
T1 construct: purchased Sigma-Aldrich
T1 sequence (O42275 24-633): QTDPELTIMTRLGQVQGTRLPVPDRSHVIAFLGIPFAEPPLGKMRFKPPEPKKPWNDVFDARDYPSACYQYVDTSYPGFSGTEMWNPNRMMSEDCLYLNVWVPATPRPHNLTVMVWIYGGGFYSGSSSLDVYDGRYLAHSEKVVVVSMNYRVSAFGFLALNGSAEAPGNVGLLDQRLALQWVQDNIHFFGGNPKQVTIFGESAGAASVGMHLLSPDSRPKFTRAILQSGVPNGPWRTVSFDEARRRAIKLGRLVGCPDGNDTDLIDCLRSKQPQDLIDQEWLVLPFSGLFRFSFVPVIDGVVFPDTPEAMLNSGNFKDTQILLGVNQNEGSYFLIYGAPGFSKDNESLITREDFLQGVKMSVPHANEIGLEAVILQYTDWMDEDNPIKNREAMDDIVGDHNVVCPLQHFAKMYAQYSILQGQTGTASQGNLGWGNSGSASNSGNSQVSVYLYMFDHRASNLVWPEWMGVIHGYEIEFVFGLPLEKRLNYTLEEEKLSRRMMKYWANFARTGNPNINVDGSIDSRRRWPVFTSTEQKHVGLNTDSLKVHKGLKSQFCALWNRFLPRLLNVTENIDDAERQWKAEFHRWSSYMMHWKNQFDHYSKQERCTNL
Method: The AChE inhibitory assay was performed according to the previous method, with slight modifications. First, 1 mL of DTNB (15 mM) solution, 1 mL of AChI (15 mM) solution, 1 mL of AChE (0.2 U/mL), and various concentrations of PS (50–400 μg/mL) were prepared using sodium phosphate buffer (0.1 M, pH 8.0). The reaction was started by adding 140 μL PBS, 10 μL DTNB solution, 15 μL AChE solution and 20 μL sample. The reaction mixture was incubated at 20 °C in the dark for 10 min, and 10 μL of AChI solution was added. Finally, the reaction mixture was incubated at 20 °C for 10 min, and the absorbance was measured at 405 nm.

[6] = tested on: LPS-induced NO production in RAW264.7 macrophages; experiment: Nitric oxide inhibitory assay; format: cell-based, Murine; settings: Mus musculus
Method: Murine RAW264.7 macrophages were cultured in DMEM medium containing 10% fetal bovine serum (FBS) and 1% penicillin at 37 °C, 5% CO2 [37].
The NO inhibitory assay was performed based on the reference method.

[7] = tested on: iNOS; experiment: Western blot analysis of iNOS; format: cell-based, Murine; settings: 12.5, 25, and 50 µM, LPS 100 ng/mL, RAW264.7
Method: (§2) The Western blot analysis was performed using the reference method with slight modifications. RAW264.7 cells were seeded in 6 cm dishes for 24 h. The cells were treated with sample (12.5, 25, and 50 µM) and LPS (100 ng/mL). After treatment with drugs, cells were washed with cold PBS, and proteins were collected with lysis buffer containing protein inhibitors. After quantification, equal amounts of protein samples were separated using 5–8% SDS-polyacrylamide gels. The proteins were transferred to the membrane by electrophoresis. The membranes were soaked in 2% BSA blocking buffer for 2 h and then washed 2–3 times with TBST. Next, the membranes were visualized with primary antibody (iNOS, TNF-α, and IL-6) and soaked for 1 day. The next day, membranes were washed again with TBST 2–3 times and then soaked with secondary antibody for 2 h. Finally, immuno-reactivity was detected with ECL reagents, exposed with a luminometer photometer, and quantified with Image J.

[8] = tested on: TNF-α; experiment: Western blot analysis of TNF-α; format: cell-based, Murine; settings: 12.5, 25, and 50 µM, LPS 100 ng/mL, RAW264.7
Method: as §2

[9] = tested on: IL-6; experiment: Western blot analysis of IL-6; format: cell-based, Murine; settings: 12.5, 25, and 50 µM, LPS 100 ng/mL, RAW264.7
Method: as §2

[10] = isolated compounds, read-out: AChE IC50 (converted)
[11] = isolated compounds, LPS-induced NO, RAW264.7, read-out: Nitric Oxide IC50
[12] = solvent extracts, concentration causing 50% free radical scavenging
[13] = RAW264.7, read-out: Nitric Oxide IC50

O=Cc1ccc(CO)o1 [5-HMF (1), 5-hydroxymethylfurfural]
EC50 [1]: > 400 µM | EC50 [2]: > 400 µM | EC50 [3]: > 400 µM | FRAP (TE) [4]: 26.70 ± 0.97 mM/g | IC50 [5, 10]: 81.5 ± 11.1 µM | IC50 [6, 11]: 34.9 ± 8.8 µM

Cc1cc(C(C)(C)C)c(O)c(C(C)(C)C)c1 [BHT, Butylated hydroxytoluene, reference compound]
EC50 [1]: 192 ± 8.94 µM | SC50 DPPH [1, 12]: 35.54 ± 0.64 µg/mL | EC50 [2]: 100 ± 7.26 µM | SC50 ABTS [2, 12]: 20.57 ± 0.22 µg/mL | FRAP (TE) [4]: 2896.93 ± 21.19 mM/g | TE FRAP ([4]; solvent extracts, mM Trolox equivalents per gram of fresh extract): 3005.93 ± 13.10 mM/g

O=C(/C=C/c1ccc(O)c(O)c1)O[C@@H]1C[C@](O)(C(=O)O)C[C@@H](O)[C@H]1O [Chlorogenic acid, chlorogenic acid, reference compound]
IC50 [5, 10]: 68.2 ± 2.9 µM | IC50 ([5]; solvent extracts, read-out: AChE IC50 (converted)): 65.7 µM

O=c1c(O[C@@H]2O[C@H](CO)[C@H](O)[C@H](O)[C@H]2O)c(-c2ccc(O)c(O)c2)oc2cc(O)cc(O)c12 [Hyperoside (4), hyperoside]
EC50 [1]: 12.5 ± 4.02 µM | EC50 [2]: 29.3 ± 0.51 µM | EC50 [3]: 172 ± 3.8 µM | FRAP (TE) [4]: 3246.93 ± 31.92 mM/g | IC50 [5]: 121 ± 10.7 µM | IC50 [6, 13]: 18.9 ± 1.68 µM | inhibition of iNOS production [7]: significantly inhibited iNOS production in a concentration-dependent manner | inhibition of TNF-α production [8]: significantly inhibited the production of TNF-α and IL-6 in a concentration-dependent manner | inhibition of IL-6 production [9]: significantly inhibited the production of TNF-α and IL-6 in a concentration-dependent manner

O=c1c(O[C@@H]2O[C@H](CO)[C@@H](O)[C@H](O)[C@H]2O)c(-c2ccc(O)c(O)c2)oc2cc(O)cc(O)c12 [Isoquercetin (3), isoquercetin]
EC50 [1]: 12.6 ± 3.21 µM | EC50 [2]: 22.7 ± 1.17 µM | EC50 [3]: 180 ± 4.43 µM | FRAP (TE) [4]: 3898.88 ± 23.23 mM/g | IC50 [5]: 23.1 ± 3.15 µM | IC50 [6, 13]: 17 ± 1.28 µM | inhibition of iNOS production [7]: significantly inhibited iNOS production in a concentration-dependent manner | inhibition of TNF-α production [8]: significantly inhibited the production of TNF-α and IL-6 in a concentration-dependent manner | inhibition of IL-6 production [9]: significantly inhibited the production of TNF-α and IL-6 in a concentration-dependent manner

O=c1c(O)c(-c2ccc(O)c(O)c2)oc2cc(O)cc(O)c12 [Quercetin, quercetin, reference compound]
IC50 [6, 11]: 18.3 ± 0.54 µM | IC50 ([6]; solvent extracts, LPS-induced NO, RAW264.7, read-out: Nitric Oxide IC50): 7.52 ± 0.25 µg/mL

C[C@@H]1O[C@@H](OC[C@H]2O[C@@H](Oc3c(-c4ccc(O)c(O)c4)oc4cc(O)cc(O)c4c3=O)[C@H](O)[C@@H](O)[C@@H]2O)[C@H](O)[C@H](O)[C@H]1O [Rutin (5), rutin]
EC50 [1]: 5.6 ± 0.34 µM | EC50 [2]: 15.4 ± 0.25 µM | EC50 [3]: 175 ± 3.02 µM | FRAP (TE) [4]: 2221.33 ± 5.02 mM/g | IC50 [5]: 33.1 ± 5.43 µM | IC50 [6, 13]: 9.89 ± 1.36 µM | inhibition of iNOS production [7]: strongest inhibitory effect among all isolated compounds; also recorded: significantly inhibited iNOS production in a concentration-dependent manner | inhibition of TNF-α production [8]: significantly inhibited the production of TNF-α and IL-6 in a concentration-dependent manner | inhibition of IL-6 production [9]: significantly inhibited the production of TNF-α and IL-6 in a concentration-dependent manner

COc1cc2ccc(=O)oc2cc1O [Scopoletin (2), scopoletin]
EC50 [1]: > 400 µM | EC50 [2]: 91.3 ± 3.36 µM | EC50 [3]: > 400 µM | FRAP (TE) [4]: 2892.97 ± 19.18 mM/g | IC50 [5]: 32.4 ± 2.05 µM | IC50 [6, 11]: 36.3 ± 4.65 µM
